Counter-ions that a name gives are not always drawn.
Key:
[1] = test system: Dextran-induced edema formation in the ears of mice; assay: Inhibition of Dextran-induced edema formation in the ears of mice; format: in vivo, male Swiss mice; settings: Column B, at 10 mg/kg body weight, 1 h before dextran; for inhibition in vivo at 10 mg/kg: Mus musculus, po, read-out: inhibition of Dextran-induced blueing of the ears of mice, % inhibition
Text: Inhibition of Dextran-induced edema formation in the ears of mice.
Intravenous injection of Dextran T500® (Pharmacia) and pontamine sky-blue dye into mice results in increased vascular permeability and edema formation, characterized by an intense blueing of the ears. Determination of the amount of extravasated dye is presumed to yield a quantitative measure of the 5-lipoxygenase inhibiting activity of the test compounds (Drug. Dev. Res. 8, 213-218, 1986). Unfasted male Swiss mice weighing 24-26 g were used in the experiments which were performed between 13.00 pm and 17.00 pm at an ambient temperature of 22±1° C. The mice were treated orally with a test compound of formula (I) dissolved in a volume of […] of either polyethyleneglycol (PEG 200) or hydroxypropyl cyclodextrine at doses varying between 1.25 and 40 mg per kg bodyweight. In control experiments the mice were administered an identical amount of solvent alone. One hour after treatment there was injected intravenously an isotonic saline solution containing 60 mg/ml Dextran T500® and 13 mg/ml pontamine sky-blue dye in a volume of 0.1 ml per 10 g bodyweight. One hour and forty-five minutes later the animals were sacrificed by ether and their ears were removed. Extraction and quantification of the extravasated dye were performed as described (Drug Dev. Res. 8, 213-218, 1986). The calculated percentage of inhibition of ear blueing upon administration of a compound of formula (I) at a dose of 10 mg/kg bodyweight is shown in the second column of table 12.

5-lipoxygenase = molecular target: T1, 5-lipoxygenase (Rattus norvegicus, UniProt P12527); assay: Arachidonate 5-lipoxygenase inhibition in Rat Basophilic Leukemia Cells Supernatant; format: biochemical; parameters: dose or concentration left out as unconfirmed; settings: Column A; 5-HPETE and LTB4 formation; read-out: 5-lipoxygenase inhibition in RBL cells supernatant, % inhibition
T1 construct: The supernatant, aliquoted and stored at -70° C., was used as the source of 5-lipoxygenase activity; endogenous in cells; host or cells: Rat basophilic leukemia (RBL) cells, 10,000×g supernatant of the sonicate (crude, not purified)
T1 sequence (P12527 1-673): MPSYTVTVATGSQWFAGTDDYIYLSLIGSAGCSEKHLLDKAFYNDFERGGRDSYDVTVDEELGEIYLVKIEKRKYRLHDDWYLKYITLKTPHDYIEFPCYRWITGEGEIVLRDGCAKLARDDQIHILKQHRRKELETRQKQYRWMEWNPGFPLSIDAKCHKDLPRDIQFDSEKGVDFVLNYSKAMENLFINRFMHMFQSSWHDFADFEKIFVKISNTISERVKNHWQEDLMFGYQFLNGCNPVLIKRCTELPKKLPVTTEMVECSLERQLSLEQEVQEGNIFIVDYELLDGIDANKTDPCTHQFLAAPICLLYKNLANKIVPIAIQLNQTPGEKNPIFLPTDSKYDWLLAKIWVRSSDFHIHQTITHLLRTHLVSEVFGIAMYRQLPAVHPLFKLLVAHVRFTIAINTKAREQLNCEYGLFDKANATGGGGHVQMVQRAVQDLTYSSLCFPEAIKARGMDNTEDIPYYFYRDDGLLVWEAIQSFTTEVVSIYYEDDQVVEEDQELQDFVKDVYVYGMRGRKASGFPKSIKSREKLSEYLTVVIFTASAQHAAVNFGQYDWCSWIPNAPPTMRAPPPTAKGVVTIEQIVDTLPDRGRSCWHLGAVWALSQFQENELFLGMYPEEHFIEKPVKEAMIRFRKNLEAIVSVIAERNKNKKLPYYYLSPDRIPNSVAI

Row | inhibition (5-lipoxygenase) | SMILES | inhibition of Dextran-induced blueing of the ears of mice, % inhibition ([1]; oral, 10 mg/kg) | inhibition in vivo at 10 mg/kg [1]
1 | – | CC(C(O)c1ccc(Br)cc1)n1ncn(-c2ccc(N3CCN(c4ccc(O)cc4)CC3)cc2)c1=O (centres unmarked) [Compound 7.68] | 81% | –
2 | 79% | Cc1cc(N2CCN(c3ccc(-n4c(C)nn(C(C)C(O)c5ccc(Br)cc5)c4=O)cc3)CC2)cc(C)c1O (centres unmarked) [Compound 7.54, 2-[2-(4-bromophenyl)-2-hydroxy-1-methylethyl]-2,4-dihydro-4-[4-[4-(4-hydroxy-3,5-dimethylphenyl)-1-piperazinyl]phenyl]-5-methyl-3H-1,2,4-triazol-3-one] | – | 76%
3 | – | Cn1c(=O)n(C)c(=O)n(-c2ccc(N3CCN(c4ccc(O)cc4)CC3)cc2)c1=O [Compound 9.05] | – | 83%
4 | 100% | CC(C(O)c1ccc(Br)cc1)n1ncn(-c2ccc(N3CCN(c4ccc(O)cc4)CC3)cc2)c1=O (centres unmarked) [Compound 7.35] | – | 79%
5 | 94% | CC(C(=O)c1ccc(Br)cc1)n1ncn(-c2ccc(N3CCN(c4ccc(O)cc4)CC3)cc2)c1=O (centres unmarked) [Compound 7.16] | – | 91%
6 | 66% | CC(C(=O)c1ccc(F)cc1)n1ncn(-c2ccc(N3CCN(c4ccc(O)cc4)CC3)cc2)c1=O (centres unmarked) [Compound 7.14] | – | 70%
7 | 87% | Cc1nn(CC(C)C)c(=O)n1-c1ccc(N2CCN(c3ccc(O)cc3)CC2)cc1 [Compound 7.34] | – | 66%
8 | 84% | CCN1CCN(c2ccc(N3CCN(c4ccc(O)cc4)CC3)cc2)C1=O [Compound 4.02] | – | –
9 | 75% | CCCN1C(=O)N(c2ccc(N3CCN(c4ccc(O)cc4)CC3)cc2)C(C)(C)C1=O [Compound 6.08] | – | 89%
10 | 81% | CN1C(=S)N(c2ccc(N3CCN(c4ccc(O)cc4)CC3)cc2)C(=O)C1(C)C [Compound 5.12] | – | 88%
11 | 100% | CCC(C(=O)c1ccc(Br)cc1)n1ncn(-c2ccc(N3CCN(c4ccc(O)cc4)CC3)cc2)c1=O (centres unmarked) [Compound 7.36] | – | 93%
12 | 71% | CCN1C(=S)N(c2ccc(N3CCN(c4ccc(O)cc4)CC3)cc2)C(=O)C1(C)C [Compound 5.13] | – | 15%
13 | 45% | CC(=O)C(C)N1C(=O)N(c2ccc(N3CCN(c4ccc(O)cc4)CC3)cc2)C(=O)C1(C)C (centres unmarked) [Compound 5.08] | – | 76%
14 | 81% | O=c1n(-c2ccc(N3CCN(c4ccc(O)cc4)CC3)cc2)cnn1CC(F)(F)F [Compound 7.11] | – | 81%
15 | – | CCN(C1=NC(C(C)C)CS1)c1ccc(N2CCN(c3ccc(O)cc3)CC2)cc1 (centres unmarked) [Compound 3.14] | – | 74%
16 | – | CCCn1c(=O)n(-c2ccc(N3CCN(c4ccc(O)cc4)CC3)cc2)c(=O)n(C(C)C(=O)c2ccc(Br)cc2)c1=O (centres unmarked) [Compound 9.07] | – | 83%
17 | 93% | Cc1cc(N2CCN(c3ccc(-n4c(C)nn(C(C)C(=O)c5ccc(Br)cc5)c4=O)cc3)CC2)cc(C)c1O (centres unmarked) [Compound 7.51, 2-[2-(4-bromophenyl)-1-methyl-2-oxoethyl]-2,4-dihydro-4-[4-[4-(4-hydroxy-3,5-dimethylphenyl)-1-piperazinyl]phenyl]-5-methyl-3H-1,2,4-triazol-3-one] | – | 83%
18 | 97% | CCC(C)n1ncn(-c2ccc(N3CCN(c4ccc(O)cc4)CC3)c(Br)c2)c1=O (centres unmarked) [Compound 7.21] | – | –
19 | 51% | CC(C(=O)c1ccc(Cl)cc1)n1ncn(-c2ccc(N3CCN(c4ccc(O)cc4)CC3)cc2)c1=O (centres unmarked) [Compound 7.15] | – | 97%

Row | inhibition (5-lipoxygenase) | SMILES | inhibition of Dextran-induced blueing of the ears of mice, % inhibition ([1]; oral, 10 mg/kg) | inhibition in vivo at 10 mg/kg [1]
20 | 95% | CCCCN1C(=O)N(c2ccc(N3CCN(c4ccc(O)cc4)CC3)cc2)CC1(C)C [Compound 4.13] | – | –
21 | 67% | O=C1CCCCC1n1ncn(-c2ccc(N3CCN(c4ccc(O)cc4)CC3)cc2)c1=O (centres unmarked) [Compound 7.18] | – | 87%
22 | – | CCC(C(O)c1ccccc1)n1ncn(-c2ccc(N3CCN(c4ccc(O)cc4)CC3)cc2)c1=O (centres unmarked) [Compound 7.69] | – | 85%
23 | 90% | CCCCN1C(=O)N(c2ccc(N3CCN(c4ccc(O)cc4)CC3)cc2)C(C)(C)C1=O [Compound 6.10] | – | 93%
24 | 100% | CC(C(O)c1ccc(Cl)cc1Cl)n1ncn(-c2ccc(N3CCN(c4ccc(O)cc4)CC3)cc2)c1=O (centres unmarked) [Compound 7.22] | – | 94%
25 | 84% | CC(C)N1C(=O)N(c2ccc(N3CCN(c4ccc(O)cc4)CC3)cc2)C(C)(C)C1=O [Compound 6.09] | – | –
26 | 52% | CCC(C)n1nc(C)n(-c2ccc(N3CCN(c4cc(C)c(O)c(C)c4)CC3)cc2)c1=O (centres unmarked) [Compound 7.50, 2,4-dihydro-4-[4-[4-(4-hydroxy-3,5-dimethylphenyl)-1-piperazinyl]phenyl]-5-methyl-2-(1-methylpropyl)-3H-1,2,4-triazol-3-one] | – | 88%
27 | 79% | CCCCN1C(=O)N(c2ccc(N3CCN(c4ccc(O)cc4)CC3)cc2)C(=O)C1C (centres unmarked) [Compound 5.03] | – | 72%
28 | 90% | CCCn1cnn(-c2ccc(N3CCN(c4ccc(O)cc4)CC3)cc2)c1=O [Compound 8.05] | – | –
29 | – | Cc1nn(C(C)C(O)c2ccc(Br)cc2)c(=O)n1-c1ccc(N2CCN(c3ccc(O)cc3)CC2)cc1 (centres unmarked) [Compound 7.70, 2-[2-(4-bromophenyl)-2-hydroxy-1-methylethyl]-2,4-dihydro-4-[4-[4-(4-hydroxyphenyl)-1-piperazinyl]phenyl]-5-methyl-3H-1,2,4-triazol-3-one] | – | 85%
30 | 90% | CCC(C)N1C(=O)N(c2ccc(N3CCN(c4ccc(O)cc4)CC3)cc2)C(C)(C)C1=O (centres unmarked) [Compound 6.12] | – | 53%
31 | 100% | CC(C(=O)c1cccc(Cl)c1)n1ncn(-c2ccc(N3CCN(c4ccc(O)cc4)CC3)cc2)c1=O (centres unmarked) [Compound 7.37] | – | 73%
32 | 90% | CCCCN1CCCSC1=Nc1ccc(N2CCN(c3ccc(O)cc3)CC2)cc1 [Compound 2.01] | – | 71%
33 | 80% | CCC(C)n1nc(C)n(-c2ccc(N3CCN(c4ccc(O)cc4)CC3)cc2)c1=O (centres unmarked) [Compound 7.33, 2,4-dihydro-4-[4-[4-(4-hydroxyphenyl)-1-piperazinyl]phenyl]-5-methyl-2-(1-methylpropyl)-3H-1,2,4-triazol-3-one] | – | 87%
34 | 97% | CCC(C)n1ncn(-c2ccc(N3CCN(c4ccc(O)cc4)CC3)cc2)c1=O (centres unmarked) [Compound 7.06] | – | –
35 | 94% | O=[N+]([O-])c1cc(F)ccc1N1CCN(c2ccc(O)cc2)CC1 [Compound 1.16, 4-[4-(4-fluoro-2-nitrophenyl)-1-piperazinyl]phenol monohydrochloride] | – | –
36 | 80% | CCCCn1c(=O)cnn(-c2ccc(N3CCN(c4ccc(O)cc4)CC3)cc2)c1=O [Compound 10.05, 4-butyl-2-[4-[4-(4-hydroxyphenyl)-1-piperazinyl]phenyl]-1,2,4-triazine-3,5(2H,4H)-dione] | – | –
37 | – | CCC(C(=O)c1ccc(Cl)cc1)n1ncn(-c2ccc(N3CCN(c4ccc(O)cc4)CC3)cc2)c1=O (centres unmarked) [Compound 7.41] | – | 82%

— patent publication US4931444A, “5-lipoxygenase inhibiting 4-(4-phenyl-1-piperazinyl)phenols” (Janssen Pharmaceutica N.V., priority 1989, dated 1990)
